Earlier results in US20230079480A1, “STABLE NON-AQUEOUS COMPOSITIONS OF FUNCTIONAL INGREDIENTS AND METHODS OF MAKING THE SAME” (Nulixir Inc., priority 2021, published 2023).

System: not given
Settings: in vivo

Question: With `COc1ccc2cc3[n+](cc2c1OC)CCc1cc2c(cc1-3)OCO2` [berberine] as the compound, how does the bioavailability read?
Answer: below 1%

System: not given
Settings: not given

Question: With `COc1ccc2cc3[n+](cc2c1OC)CCc1cc2c(cc1-3)OCO2` [berberine] as the compound, how does the “solubility in ethanol as a function of water content” value read?
Answer: decreases rapidly with water content

System: many strains of fungi
Settings: not given

Question: With `O=CC=Cc1ccccc1` [Cinnamaldehyde] as the compound, how does the “inhibitory activity against fungi” value read?
Answer: strong inhibitory activity against many strains of fungi

System: not given
Settings: pH 7

Question: For `CC(C)=CCC[C@](C)(O[C@@H]1O[C@H](CO)[C@@H](O)[C@H](O)[C@H]1O)[C@H]1CC[C@]2(C)[C@@H]1[C@H](O)C[C@@H]1[C@@]3(C)CC[C@H](O)C(C)(C)[C@@H]3[C@@H](O[C@@H]3O[C@H](CO)[C@@H](O)[C@H](O)[C@H]3O)C[C@]12C` [ginsenoside rg1], which “log P” value is on record?
Answer: ~0.8

Question: With `CC(C)=C[C@@H]1CO[C@]23C[C@]4(CO2)[C@H](CC[C@@H]2[C@@]5(C)CC[C@H](O[C@@H]6OC[C@H](O)[C@H](O[C@@H]7O[C@H](CO)[C@@H](O)[C@H](O)[C@H]7O)[C@H]6O[C@@H]6O[C@@H](CO)[C@H](O)[C@H]6O)C(C)(C)[C@@H]5CC[C@]24C)[C@H]3[C@@]1(C)O` [bacopasaponin C] as the compound, how does the “log P” value read?
Answer: ~2

Question: With `COc1ccc([C@@]23C=CC(=O)C[C@@H]2N(C)CC3)cc1OC` [mesembrenone] as the compound, how does the “log P” value read?
Answer: ~1.3

Question: Which “log P” value does the source give for `CC(C)=C[C@H]1C[C@](C)(O)[C@H]2[C@H]3CC[C@@H]4[C@@]5(C)CC[C@H](O[C@@H]6O[C@H](CO)[C@@H](O)[C@H](O[C@@H]7O[C@H](CO)[C@@H](O)[C@H](O)[C@H]7O)[C@H]6O[C@@H]6O[C@@H](CO)[C@H](O)[C@H]6O)C(C)(C)[C@@H]5CC[C@@]4(C)[C@@]34CO[C@@]2(C4)O1` [bacoside A3] here?
Answer: ~2.1

Question: For `CC(C)=C[C@H]1C[C@](C)(O)[C@@H]2[C@H]3CC[C@@H]4[C@@]5(C)CC[C@H](O[C@@H]6OC[C@H](O)[C@H](O[C@@H]7O[C@H](CO)[C@@H](O)[C@H](O)[C@H]7O)[C@H]6O[C@@H]6O[C@@H](CO)[C@H](O)[C@H]6O)C(C)(C)[C@@H]5CC[C@@]4(C)[C@@]34CO[C@@]2(C4)O1` [bacopaside X], which “log P” value is on record?
Answer: ~2.2

Question: With `CC(C)=CCC[C@](C)(O[C@@H]1O[C@H](CO[C@@H]2O[C@H](CO)[C@@H](O)[C@H](O)[C@H]2O)[C@@H](O)[C@H](O)[C@H]1O)[C@H]1CC[C@]2(C)[C@@H]1[C@H](O)C[C@@H]1[C@@]3(C)CC[C@H](O[C@@H]4O[C@H](CO)[C@@H](O)[C@H](O)[C@H]4O[C@@H]4O[C@H](CO)[C@@H](O)[C@H](O)[C@H]4O)C(C)(C)[C@@H]3CC[C@]12C` [ginsenoside rb1] as the compound, how does the “log P” value read?
Answer: ~−1

Question: For `COc1ccc(C23C=CC(O)CC2N(C)CC3)cc1OC` (stereo not drawn) [mesembrenol], which “log P” value is on record?
Answer: ~2.4

Same assay, conditions: water and n-octanol reference phases; pH=7 unless stated otherwise

Question: For bacopaside B, which “log P” value is on record?
Answer: ~2.8

Question: For `COc1cc2c(c(OC)c1OC)-c1c(cc3c(c1OC)OCO3)CC(C)C(C)C2` (single isomer, unassigned; (-)) [(−)-schisandrin B], which “log P” value is on record?
Answer: ~4

Question: For `COc1cc(/C=C/c2ccccc2)oc(=O)c1` [5,6-dehydrokawain], which “log P” value is on record?
Answer: ~2.9

Question: Which “log P” value does the source give for herinacine A here?
Answer: ~2.5

Question: With `COc1cc2c(c(OC)c1OC)-c1c(cc(OC)c(OC)c1OC)C[C@](C)(O)[C@@H](C)C2` [(+)-schisandrin] as the compound, how does the “log P” value read?
Answer: ~5

Question: Which “log P” value does the source give for schisandroside C here?
Answer: ~1.6

Question: With `COc1ccc(CCc2cc(OC)cc(=O)o2)cc1` [7,8-dihydroyangonin] as the compound, how does the “log P” value read?
Answer: ~2.9

Question: Which “log P” value does the source give for `COc1c2c(cc3c1-c1c(cc4c(c1OC)OCO4)C[C@H](C)[C@H](C)C3)OCO2` [(−)-schisandrin C] here?
Answer: ~3.5

Question: With `COc1cc(/C=C\c2ccc(OC)c(O)c2)oc(=O)c1` [11-hydroxyyangonin] as the compound, how does the “log P” value read?
Answer: ~2.2

Question: Which “log P” value does the source give for `COc1ccc([C@@]23CCC(=O)C[C@@H]2N(C)CC3)cc1OC` [mesembrine] here?
Answer: ~1.5

Question: For tortuosomine, which “log P” value is on record?
Answer: ~3

Question: For `Cn1c(=O)c2c(n(C)c1=O)n(C)c(=O)n2C` [theacrine], which “log P” value is on record?
Answer: ~−1.06

Question: For `COC1=CC(=O)O[C@@H](CCc2ccc3c(c2)OCO3)C1` [7,8-dihydromethysticin], which “log P” value is on record?
Answer: ~2.2

Question: Which “log P” value does the source give for `COc1cc2c(c(OC)c1OC)-c1c(cc(OC)c(OC)c1OC)C[C@H](C)[C@H](C)C2` [(−)-schisandrin A] here?
Answer: ~3.6

Question: With `COC1=CC(=O)OC(/C=C/c2ccc(OC)cc2)C1` (stereo not drawn) [5,6-dihydroyangonin] as the compound, how does the “log P” value read?
Answer: ~2.5

Question: Which “log P” value does the source give for hericerin here?
Answer: ~6.4

Question: For `COc1cc2c(c(OC)c1OC)-c1c(cc(OC)c(OC)c1OC)C[C@](C)(O)[C@@H](C)C2` [schisandrol A], which “log P” value is on record?
Answer: ~3.4

Question: For `CC(=O)OC1C=CC(=O)N(C(=O)CCc2ccccc2)C1` (stereo not drawn) [pipermethystine], which “log P” value is on record?
Answer: ~1.8

Question: For (R)-kawain, which “log P” value is on record?
Answer: ~2.7

Question: With `CC1=C(CO)C(=O)O[C@@H]([C@@H](C)[C@H]2CC[C@H]3[C@@H]4C[C@H](Cl)[C@]5(O)[C@@H](O)C=CC(=O)[C@]5(C)[C@H]4CC[C@]23C)C1` [6a-chloro-5b-hydroxywithaferin A] as the compound, how does the “log P” value read?
Answer: ~3.2

Question: Which “log P” value does the source give for `COc1cc([C@H]2Oc3cc(O)c4c(=O)c(O)c(-c5ccc(O)cc5)oc4c3O[C@@H]2CO)ccc1O` [rhodiolin] here?
Answer: ~2

Question: With `COc1nc2c(c(=O)n1C)n(C)c(=O)n2C` [methylliberine] as the compound, how does the “log P” value read?
Answer: ~−0.083

Question: Which “log P” value does the source give for `N#C[C@@]1(O[C@@H]2O[C@H](CO)[C@@H](O)[C@H](O)[C@H]2O)C=C[C@@H](O)C1` [tetraphyllin B] here?
Answer: ~−2.5
